The record followed here is article PMC7766155, “Improved Stability and Activity of a Marine Peptide-N6NH2 against Edwardsiella tarda and Its Preliminary Application in Fish” (Marine Drugs, 2020).

One data set concerns E. tarda genomic DNA. Description: Competitive binding of genomic DNA with ethidium bromide. Details: species or system Edwardsiella tarda. The settings on record: peptide 160 μg/mL added to DNA (10 μg)-EB; 30 min at 37 °C. As for the experimental part:
E. tarda genomic DNA was dissolved in TE buffer to a concentration of 100 μg/mL; 1.5 μL of EB (100 μg/mL) solution was mixed with 100 μL of DNA solution and then added into 96-well plates. The DNA-EB mixture was incubated in the dark at 37 °C for 10 min. Varying concentrations of peptides (0, 40, 80, and 160 μg/mL, 100 μL) were then added to the DNA-EB solution (100 μL), and the fluorescence spectra were measured for each test solution after 30 min of incubation at 37 °C in the dark. Infinite M200 PRO was used for sample determination at 535 nm, and the spectra were recorded from 550 to 750 nm.
To determine the competitive binding of EB against peptides with bacterial DNA, 100 μL of DNA (50 μg/mL) solution was mixed with 100 μL of peptide solution (80 μg/mL) and incubated at 37 °C for 10 min. Then aliquots of stock solution of EB (0, 25, 50, and 100 μg/mL, 1.5 μL) were added to the fixed DNA-peptide solution and incubated for 30 min at 37 °C in the dark. The fluorescence spectra were measured as described above.

The nature of data set [1]: LPS binding, BODIPY-TR-cadaverine displacement. The settings on record: 0.5 µM LPS, 5 μM BC, Tris buffer pH 7.4; 0.049 μM to 50 μM; excitation/emission 580/620 nm. Details: species or system E. coli.
The test system of a further data set is E. tarda. Description: pH stability (residual antibacterial activity, inhibition zone). In kind it is physicochemical, Edwardsiella tarda. As to conditions: pH values of 2–10, 3 h incubation; N6 128 μg/mL, norfloxacin 10 μg/mL; inhibition zone method vs E. tarda. The procedure: To evaluate the thermal stability of peptides, N6 and N6NH2 were incubated for 1 h at 4, 20, 40, 60, 80 and 100 °C. To measure the pH stability, peptides were incubated for 3 h in 100 mM glycine-HCl buffer (pH 2.0), sodium acetate buffer (pH 4.0), sodium phosphate buffer (pH 6.0), Tris-HCl buffer (pH 8.0) or glycine-NaOH buffer (pH 10.0). In addition, peptides were incubated for 4 h at 37 °C in pepsin (3,000 U/mg, pH 2.0) and trypsin (250 U/mg, pH 8.0) (10:1, w/w) solutions, respectively. […] After treatment, 30 μL of solutions were taken out to determine the antibacterial activity of peptides against E. tarda by the inhibition zone method. The untreated peptides were used as the control. All tests were conducted in triplicate.

The test system of data set [2] is Salmonella typhimurium CVCC533.
Setting [3] is: broth microdilution, MHB, 1 × 10^5 CFU/mL, 37 °C 18–24 h, n = 3, some N6 data from ref 19.

Read-outs that look alike come from different tables or passages of the source. Where a SMILES comes first, the peptide text is derived from it. Bridges are numbered along the chain shown (N, C = ends).

Usually MIC stands for the smallest concentration in the dilution series that meets the test's criterion for growth inhibition. In the case of `CC(C)[C@@H]1NC(=O)CNC(=O)[C@H](CC(N)=O)NC(=O)[C@H](CCCNC(=N)N)NC(=O)[C@H](Cc2ccc(O)cc2)NC(=O)[C@H](C(C)C)NC(=O)[C@@H](NC(=O)[C@@H](NC(=O)[C@H](CC(N)=O)NC(=O)[C@H](Cc2c[nH]c3ccccc23)NC(=O)[C@H](C)NC(=O)[C@H](Cc2ccccc2)NC(=O)CN)C(C)C)CSSC[C@@H](C(=O)N[C@@H](Cc2c[nH]cn2)C(=O)N[C@@H](CCCNC(=N)N)C(=O)N[C@@H](CCCNC(=N)N)C(=O)N[C@@H](C)C(=O)N[C@@H](CC(N)=O)C(=O)O)NC(=O)[C@H](C(C)C)NC(=O)[C@H](CCCNC(=N)N)NC1=O` [Peptide N6] (H-GFAWNVCVYRNGVRVCHRRAN-OH; disulfide 7-16; N-terminus assumed), the “competition with EB for binding to E. tarda genomic DNA (quenching of DNA-EB fluorescence)” value in the data set with E. tarda genomic DNA is listed as “the binding affinity of N6 was stronger than that of N6NH2”. In addition, the MIC is 0.8 µM in the data set on S. typhimurium ATCC14028 (ATCC14028); 2 mg/L with S. typhimurium ATCC14028 (setting [3]); 0.1 µM with S. enteritidis CVCC3377 (CVCC3377); 0.25 mg/L against S. enteritidis CVCC3377 (setting [3]); 0.2 µM against S. pullorum CVCC1802 (CVCC1802); 0.5 mg/L in the data set with S. pullorum CVCC1802 (setting [3]). For the same compound, the MIC in data set [2] (setting [3]) stood at 1 mg/L; in data set [2] (murium CVCC533), 0.4 µM. Besides, in data set [1], the “binding to LPS (displacement of BC probe)” value is “potent LPS-binding affinity”. In addition, the “antibacterial activity at different pH values” in the data set with E. tarda is on record as “strong antibacterial activity”.
